The results in this text go back to EPA's ToxValDB 9.5 (doi:10.2903/j.efsa.2017.4980).

Values after ≈ are worked out from the molar mass of the structure shown. Where only a bound is given, the exact number is not on record here.

One may read the NOAEL as the highest tested level that showed no adverse finding.

The test system of one series is Tagia sp. As to conditions: acute; duration: 14 days; mortality.
The subject of a further series is Canidae. The conditions noted are these: oral, Dog Other, organ weight.
The test system of a further series is Landoltia sp. The conditions noted are these: chronic/long-term; duration: 14 days.
The test system of a further series is Apis mellifera. The conditions noted are these: acute, mortality.
In another series the test system is Anas platyrhynchos. The conditions noted are these: reproductive.
A further series concerns Typhlodromus pyri. In words: LR50; higher = less toxic. The conditions noted are these: not reported; mortality.

Regarding `CCC(C)(NC(=O)c1cc(Cl)c(C)c(Cl)c1)C(=O)CCl` (configuration not stated) [Zoxamide], the LC50 is greater than 1070 mg/kg in the series on Tagia sp.; 0.076 µg/mL (≈ 0.226 µM) in the series with Neomysis kadiakensis (acute, duration: 96 hours, mortality); 0.16 µg/mL (≈ 0.475 µM) with Oncorhynchus mykiss (acute, duration: 96 hours, oral, feed, mortality). Also, the NOEC is 66.7 mg/kg in the series with Tagia sp.; 0.009 mg/L in the series with Landoltia sp.; 171 mg/kg-day in the series on Colinus virginianus (reproduction developmental); 0.0072 mg/L in the series with Neomysis kadiakensis (chronic/long-term, duration: 27 days); 123 mg/kg-day with Anas platyrhynchos; 0.00348 mg/L with Oncorhynchus mykiss (chronic/long-term, duration: 95 days). In addition, the NOAEL worked out at 50 mg/kg-day in the series on Canidae (chronic, duration: 1 years); 50 mg/kg-day with Canidae (subchronic, duration: 90 days); 360 mg/kg-day in the series with Rattus norvegicus (reproduction developmental, body weight). In addition, the LD50 in the series with Apis mellifera (dermal) is greater than 100 µg/piece; in the series on Apis mellifera (oral, unspecified) it was greater than 33 µg/piece; in the series on Colinus virginianus (acute, oral, mortality) it was greater than 2000 mg/kg-day; with Rattus norvegicus (acute, oral, mortality), greater than 5000 mg/kg-day. Further, the LR50 in the series with Typhlodromus pyri is greater than 300 g/ha.
